Results from US6372727B1, “Metalloporphyrin treatment of neurologic disease” (UAB Research Foundation, priority 1999, dated 2002).

How the values were obtained:
[1] = tested on: cultured motor neurons; assay: Protection of cultured motor neurons from growth factor withdrawal; type: cell-based; details: for level of protection compared with FeTCPP: 72 hr after trophic factor deprivation
Experimental: Culture Motor neurons were prepared from embryonic day 15 (E15) rat spinal cords by a combination of metrizamide gradient centrifugation and immunopanning with the monoclonal antibody IgG192 (Chandler et al., J. Biol. Chem. 259:6882-6889, 1984) as previously described (Estevez et al., J Neurosci 18:923-931, 1998; Henderson C E, Bloch-Gallego E, Camu W (1995): Purification and culture of embryonic motorneurons. In Cohen J, Wilkin G (eds): Neural Cell Culture: A Practical Approach. Oxford, England: IRL Press, pp 69-81). Long-term cultures of motor neurons were performed as described by Pennica et al. (Pennica et al., Neuron 17:63-74, 1996). Briefly, motor neurons were plated at a density of 200 cells/cm2 on 35 mm dishes precoated with polyornithine-laminin in Neurobasal medium supplemented with B27 (Life Technologies, Grand Island, N.Y.), 2% horse serum, 0.5 mM L-glutamine, 25 μM 2-mercaptoethanol and 25 μM L-glutamate. Every 3-4 days ¾ of the culture medium was replaced by fresh medium lacking L-glutamate and containing sufficient quantities of BDNF or FeTCPP to supplement the 2 ml of medium in the dish. More than 94% of the cells were immunoreactive for the p75 low-affinity neurotrophic receptor (p75NTR) and Islet ½, which are markers for motor neurons. The experiments were repeated at least 2 times using the same lot of Neurobasal medium and B 27 supplement.
The number of motor neurons with neurites longer than 4 soma diameters present in parallel cultures treated with BDNF at a final concentration of 100 pg/ml 24 h after plating or culture media replacement was considered 100% motor neuron survival. FeTCPP was resuspended in complete Neurobasal medium at a 5 mM concentration. Dilutions were performed of the stock solution to add 20 μl per dish.
Rat motor neurons survive many days in culture when brain-derived neurotrophic factor (BDNF) is added to the culture media. Because motor neurons are the cells that preferentially die in ALS, primary cultures of motor neurons represent the best non-animal model of ALS. Withdrawal of BDNF results in apoptotic death of >70% of motor neurons within 24 h. Cell death was correlated with expression of the neuronal form of nitric oxide synthase (nNOS) and the production of peroxynitrite, as evidenced by protein tyrosine nitration. When FeTCPP is added to the culture media in place of BDNF and motor neuron survival is assessed at 24 h, some protection is seen at concentrations as low as 0.01 μM (FIG. 10A). […] Additionally, a comparison of the effect of FETCPP and its tetra-methyl ester derivative, TMeO-FeTCPP, on motor neuron survival at 72 hr.

[2] = tested on: ALS-SOD1 (G93A) transgenic mice; assay: Survival of ALS-SOD1 (G93A) transgenic mice; type: in vivo; details: G93A mutant of Cu,Zn superoxide dismutase transgene
Experimental: FIG. 13A: Transgenic mice (n=9) were injected intraperitoneally with 3 mg/kg/day of a low molecular weight (844.6) synthetic iron porphyrin. […] Treatment was continued until such time that signs of diaphragm weakness (labored breathing) necessitated sacrifice. A control group of transgenic mice was treated with vehicle only (phosphate-buffered saline). FIG. 13B: Transgenic mice were injected intraperitoneally with 1 mg/kg/day of a low molecular weight (844.6) synthetic iron porphyrin. Treatment began at day 60 prior to the onset of symptoms. A control group of transgenic mice was treated with vehicle only (phosphate-buffered saline).
Mice transgenic for the G93A mutated form of SOD1 are generally accepted as the standard model of motor neuron disease. […] This compound extended the mean survival time by 13 days (from 127 to 140 days) (FIG. 13A).
A group of G93A mice was treated with 1 mg/kg of FeTCPP intraperitoneally beginning at 60 days of age. As with the control group in FIG. 13A, none of the control group in this test survived past 132 days. However, the probability of survival at 140 days was about 37% and at approximately 180 days survival was still at 20%.

[3] = MP-catalyzed peroxynitrite decomposition monitored at 302 nm; type: biochemical; details: for Rate Constants for MP-Catalyzed Decomposition of Peroxynitrite (pH 7.4, 37° C.): 100 μM peroxynitrite, absence of added reductants
Experimental: Peroxynitrite (100 μM) was added to rapidly stirred cuvettes at 37° C. containing the indicated concentrations of MPs in 0.1 M potassium phosphate, pH 7.4. Ascorbate was added to 150 μM where indicated. Peroxynitrite decomposition was monitored at 302 nm using a Hewlett-Packard diode-array spectrophotometer. Apparent rates (kapparents^−1, average of n=3) were plotted versus MP concentration to determine rate constants in M^−1s^−1.
Reactions contained the indicated concentration of FeTCPPin 1.4 ml of 0.1 M potassium phosphate, pH 7.4 in the absence or presence to 150 μM ascorbic acid. Peroxynitrite (100 μM) was added to rapidly stirred cuvettes at 37° C. and the decay of peroxynitrite was monitored continuously at 302 nm. Decay data were fitted to the equation describing first order decay to obtain apparent decay rates (kapparent sec^−1). Apparent decay rates as a function of FeTCPP were fitted by linear regression and the rate constant was obtained slope of the line.
Peroxynitrite (100 μM) decomposition was determined at 302 nm using a Hewlett-Packard diode-array spectrophotometer fitted with a temperature-controlled cuvette chamber and a water-driven cuvette stirrer. Bolus additions of peroxynitrite were made to vigorously stirred cuvettes containing varying concentrations of MPs (see Table III) while data were collected at a rate of ten points/sec. […] Each reaction was repeated three times and only the first additions of peroxynitrite were averaged. Data were exported for fitting and plotting. Apparent rates of peroxynitrite decomposition were plotted as a function of metalloporphyrin concentration (as shown in FIG. 5) to determine concentration-independent rate constants at 37° C.
Rates of peroxynitrite (100 μM) decomposition were determined at different MP concentrations. Ascorbate was added to 150 μM where indicated. […] Apparent rate constants were plotted versus MP concentration (as in FIG. 5A,B) to determine true rate constants in M^−1s^−1±standard error.

[4] = Peroxynitrite-mediated nitration of GYA peptide; type: biochemical; details: 2 mM GYA; for enhancement of nitration yield: 10 μM MP or SOD subunit, 1 mM CO2, pH 7.4, 37° C.; for effect on nitration: 10 μM MP, pH 7.4
Experimental: Nitration efficiency, defined as the moles of nitrated GYA peptide formed per mole of peroxynitrite added, was determined at a fixed concentration of 10 μM MP or Cu,Zn SOD subunit, or 1 mM CO2 as described below. Increasing amounts of peroxynitrite were added in a sequential manner in order to determine whether nitration efficiency varied with concentration and to determine whether nitration catalysis was maintained with multiple additions (see INSET). Nitration efficiency was calculated for each peroxynitrite addition; the values shown are the average of all nine peroxynitrite additions. Absorbance changes were monitored simultaneously at 380, 430, and 460 nm.
(§1) For nitration of GYA peptide (see FIG. 6), reaction solutions contained 2 mM GYA and 10 μM of the indicated MP in 1.4 ml of 0.1 M potassium phosphate, pH 7.4 at 37° C. Comparisons with two previously characterized nitration catalysts, human Cu,Zn superoxide dismutase (hCu,Zn SOD) and carbon dioxide, were made using 10 μM of SOD subunit and 25 mM potassium bicarbonate, respectively, which was pH-adjusted to 7.4. This level of bicarbonate results in rapid saturation of the solution with carbon dioxide (˜1 mM). Solutions were placed into a rapidly stirred cuvette and nine bolus additions (50 μM×3, 100 μM×3, and 200 μM×3) of peroxynitrite were made sequentially while the absorbance was monitored. Increasing amounts of peroxynitrite were added in a sequential manner in order to determine whether nitration efficiency varied with concentration and to determine whether nitration catalysis was maintained with multiple additions (see FIG. 6 inset). Nitration efficiency was defined as the amount of nitropeptide formed per amount of peroxynitrite added and was calculated for each peroxynitrite addition; the values shown are the average of all nine peroxynitrite additions. The absorbance changes associated with nitrotyrosine peptide production were monitored simultaneously at 380, 430, and 460 nm. The extinction coefficients for nitrated GYA at pH 7.4 are 4,400 M^−1cm^−1 at 430 nm and 2,200 M^−1cm^−1 at both 380 and 460 nm. […] Wavelengths used to quantify nitrotyrosine production were chosen to minimize interference by the particular metalloporphyrin used. Experiments using HPA as a nitration target (FIG. 7) contained 8 mM HPA in either 0.1 M potassium phosphate, pH 7.4 or 0.1 M sodium borate, pH 9.1.
The relative abilities of several MPs to enhance nitration of the tripeptide GYA was compared using 10 μM MP and sequential bolus additions of 50 μM (×3), 100 μM (×3), and 200 μM (×3)peroxynitrite (FIG. 6, inset).

[5] = Ascorbate oxidation by MPs monitored at 266 nm; type: biochemical; details: MP 10 μM, 50 μM ascorbate, 0.1 M potassium phosphate pH 7.4, ± standard error, n=3
Experimental: In order to test the hypothesis that Mn(II)- or Fe(II)-porphyrins would be capable of carrying out two-electron reductions of peroxynitrite and thereby decreasing rather than increasing its reactivity, attempts were made to pre-reduce these transition metal-containing MPs prior to addition of peroxynitrite.
Table V. Ascorbate oxidation by MPs. MPs (10 μM) were added to stirred cuvettes containing 0.1 M potassium phosphate, pH 7.4 and 50 μM ascorbate. Ascorbate oxidation was monitored at 266 nm (ηm=17,700 M^−1cm^−1). Oxidation rates (±standard errors) were determined by fitting the initial linear portion of each curve and averaging the rates (n=3).

[6] = MP-catalyzed nitration of HPA: effect of pH, reductants and serum; type: biochemical
Experimental: Single additions of 100 μM peroxynitrite were made to reactions containing ascorbate or GSH. Three sequential additions of 100 μM peroxynitrite were made to all other reactions.
as §1, with “This” for “For nitration of GYA peptide (see FIG. 6), reaction solutions contained 2 mM GYA and 10 μM of the indicated MP in 1.4 ml of 0.1 M potassium phosphate, pH 7.4 at 37° C. Comparisons with two previously characterized nitration catalysts, human Cu,Zn superoxide dismutase (hCu,Zn SOD) and carbon dioxide, were made using 10 μM of SOD subunit and 25 mM potassium bicarbonate, respectively, which was pH-adjusted to 7.4. This”

## Iron (III) meso 5,10,15,20-tetrakis-(4-carboxymethyl-phenyl) porphyrin [FeTMeO-TCPP]
[1]
  survival of cultured motor neurons deprived of growth factors: prolong survival of cultured motor neurons
[1]; 0.01 μM
  level of protection compared with FeTCPP: twice the level of protection
[1]; 0.1 μM
  level of protection compared with FeTCPP: slightly greater level of protection
[2]
  progression of motor neuron death in mice: slow the progression of motor neuron death

## Iron (III) meso-tetra-(4-sulfonatophenyl)-porphyrin [FeTSPP]
[3]
  Rate Constants for MP-Catalyzed Decomposition of Peroxynitrite (pH 7.4, 37° C.): 3.3 × 10^5 ± 0.4 M^−1s^−1
[4]
  enhancement of nitration yield: 5.3 fold
[5]
  Rate of Ascorbate Oxidation: 4.58 ± 0.21 µM/min
[6]; 8 mM HPA, 10 μM MP, 0.1 M sodium borate pH 9.1, versus non-catalyzed
  enhancement of nitration yield at pH 9.1: 2.8 fold
[6]; concentrations which eliminated non-catalyzed nitration
  effect of ascorbate and GSH on nitration enhancement: largely prevented the enhancement of nitration
[6]; fresh human serum 1:10 added prior to peroxynitrite
  effect of serum on nitration enhancement: largely eliminated the nitration enhancement

## O=C1O[C@H]([C@@H](O)CO)C(O)=C1O [ascorbate, ascorbic acid]
[3]; ascorbate alone 150 μM, no MP
  acceleration of peroxynitrite decomposition: 16%

## O=C(O)c1ccc(-c2c3nc(c(-c4ccc(C(=O)O)cc4)c4ccc([n-]4)c(-c4ccc(C(=O)O)cc4)c4nc(c(-c5ccc(C(=O)O)cc5)c5ccc2[n-]5)C=C4)C=C3)cc1.[Zn+2] [ZnTBAP, Zinc (II) tetra-(4-benzoic acid)-porphyrin]
[3]
  Rate Constants for MP-Catalyzed Decomposition of Peroxynitrite (pH 7.4, 37° C.): 5.3 × 10^3 ± 0.3 M^−1s^−1
[4]
  effect on nitration: small but reproducible inhibitory effect

## Copper (II) meso-tetra-(4-sulfonatophenyl)-porphyrin [CuTSPP]
[4]
  effect on nitration: small but reproducible inhibitory effect

## O=C=O [carbon dioxide]
[4]
  enhancement of nitration yield: 1.7 fold

B1: BDNF: brain-derived neurotrophic factor (protein, UniProt P23560 19-247, looked up)
Neurotrophic factor BDNF …: APMKEANIRGQGGLAYPGVRTHGTLESVNGPKAGSRGLTSLADTFEHVIEELLDEDQKVRPNEENNKDADLYTSRVMLSSQVPLEPPLLFLLEEYKNYLDAANMSMRVRRHSDPARRGELSVCDSISEWVTAADKKTAVDMSGGTVTVLEKVPVSKGQLKQYFYETKCNPMGYTKEGCRGIDKRHWNSQCRTTQSYVRALTMDSKKRIGWRFIRIDTSCVCTLTIKRGR
[1]; long-term culture in the presence of BDNF
  motor neurons that die between day 8 and day 16: 80%
